Data on 2 compounds can be found in patent US8337881B2, “Cyanoacrylate monomer formulation containing diiodomethyl-p-tolylsulfone” (Ethicon, Inc., priority 2003, dated 2012).

Each structure is given as a SMILES string. Like-named read-outs stand apart in the source and are kept apart here.

The conditions of series [1]: aqueous; cited from earlier work.
Series [2] is described as follows: Solubility of DIMPTS in cyanoacrylate monomer. Format: physicochemical. The text has this: Diiodomethyl-p-tolylsulfone (DIMPTS) is soluble in cyanoacrylate monomer at least up to 15,000 ppm (wt./wt.). Accordingly, formulations may herein have a concentration of diiodomethyl-p-tolylsulfone ranging from about 500 (0.05%) to about 10,000 ppm (1.00%), preferably from about 700 (0.07%) to about 7,000 ppm (0.70%), more preferably the concentration of diiodomethyl-p-tolylsulfone is about 2800 ppm (0.28%).

Series [3] relates to Staphylococcus aureus 33591. In words: MIC/MBC of pure DIMPTS, tube dilution procedure. The following applies: preliminary evaluation. Format: cell-based. As for the experimental part:
(§1) Minimum inhibitory concentration is the lowest concentration that prevents the development of visible growth after a period of incubation. Minimum bactericidal concentration is the lowest concentration that achieves a 1000 fold or greater reduction in the original bacterial inoculum. The minimum inhibitory concentration (MIC) and minimum bactericidal concentration (MBC) is evaluated using tube dilution procedure. The effectiveness of the antimicrobial property of pure […] is described in terms of minimum inhibitory concentration (MIC) and minimum bactericidal concentration (MBC) in Table II (A).

Series [4] relates to Enterococcus faecium 700221. In words: MIC/MBC of pure DIMPTS, tube dilution procedure. Type of series: cell-based. The following applies: preliminary evaluation. As for the experimental part: as §1
The test system of series [5] is Pseudomonas aeruginosa 9027. The series is described as follows: MIC/MBC of pure DIMPTS, tube dilution procedure. Format: cell-based. The following applies: preliminary evaluation. As for the experimental part: (§2) Minimum inhibitory concentration is the lowest concentration that prevents the development of visible growth after a period of incubation. Minimum bactericidal concentration is the lowest concentration that achieves a 1000 fold or greater reduction in the original bacterial inoculum. The minimum inhibitory concentration (MIC) and minimum bactericidal concentration (MBC) is evaluated using tube dilution procedure.
(§3) The effectiveness of the antimicrobial property of pure DIMPTS is described in terms of minimum inhibitory concentration (MIC) and minimum bactericidal concentration (MBC) in Table II (A).

The test system of series [6] is Staphylococcus aureus 6538. The series is described as follows: MIC/MBC of pure DIMPTS, tube dilution procedure. Type of series: cell-based. The following applies: preliminary evaluation. As for the experimental part:
as §2, §3

The test system of another series is Escherichia coli 8739. In words: MIC/MBC of pure DIMPTS, tube dilution procedure. Format: cell-based. The following applies: preliminary evaluation. As for the experimental part:
as §2, §3

For another series, the system named is Candida albicans 10231. The series is described as follows: MIC/MBC of pure DIMPTS, tube dilution procedure. Format: cell-based. As for the experimental part:
as §2, §3

Series [7] concerns Staphylococcus epidermidis 51625. The series is described as follows: MIC/MBC of pure DIMPTS, tube dilution procedure. Type of series: cell-based. The following applies: preliminary evaluation. As for the experimental part:
as §2, §3

The test system of another series is Bacillus subtilis 902173. The series is described as follows: MIC/MBC of pure DIMPTS, tube dilution procedure. Type of series: cell-based. The following applies: preliminary evaluation. As for the experimental part:
as §2, §3

The test system of series [8] is Streptococcus agalactiae 624. In words: MIC/MBC of pure DIMPTS, tube dilution procedure. Format: cell-based. The following applies: preliminary evaluation. As for the experimental part:
as §2, §3

The term pKa denotes the pH at which an ionisable group is half protonated. Regarding `[O-][Cl+3]([O-])([O-])O` [perchloric acid], in series [1], the pKa was −5.0.

Regarding `Cc1ccc(S(=O)(=O)C(I)I)cc1` [DIMPTS, diiodomethyl-p-tolylsulfone], the “soluble in cyanoacrylate monomer” value in series [2] is on record as ≥ 15,000 ppm (wt./wt.). Moreover, the MBC in series [3] was < 250 µg/mL; in series [6] it was < 250 µg/mL; in the series with Escherichia coli 8739 it was < 250 µg/mL; in the series on Candida albicans 10231 (Candida albicans 10231, preliminary evaluation) it was 10 to 100 µg/mL; in [7], < 100 µg/mL; with Bacillus subtilis 902173 it was 50 to 100 µg/mL. Also, the MBC in series [8] lay within 125 to 250 µg/mL. Moreover, the MIC in series [3] was 12.5 µg/mL; in series [4] it was 50 µg/mL; in series [5] it was > 100 µg/mL; in [6], 100 µg/mL; in the series with Escherichia coli 8739 it was 100 µg/mL; with Candida albicans 10231 (Candida albicans 10231, preliminary evaluation, read-out: MIC), 5 µg/mL. Also, the MIC was ~5 µg/mL with Candida albicans 10231 (Candida albicans, 10231, statement in description, strain not given, read-out: minimum inhibitory concentration against C. albicans); 25 µg/mL in [7]; 50 µg/mL in the series with Bacillus subtilis 902173; 50 µg/mL in [8].
